Converted amounts (≈) assume the structure as drawn.
How the values were obtained:
[1] = Drug concentrations obtained using EGCG at 50 mg per ml (microscopic check for particulates); assay type: physicochemical
Experimental: EGCG at 50 mg/ml and drug at approximately 250 micrograms per ml were dissolved in the listed solvent and dried down in a test tube under nitrogen. 1 ml of water was added, followed by vortexing. The solutions were examined for particulate matter under a microscope. If no particulates were present, the process was repeated with a higher drug amount. All the tested drugs remained in solution at the listed concentrations except for nystatin and hesperidin.

pig skin = tested on: pig skin
Experimental: Various gallate-containing drug formulations were prepared and applied to ex vivo pig skin samples. Fresh pig skin was obtained from a local butcher, processed within three hours and then frozen. For experiments, the skin was slowly thawed, excess fat removed from the base, and cut into 1×2 cm squares. These squares were mounted and clamped on Franz diffusion cells, which kept the tissue moist and isolated and exposed a 6 mm diameter of the upper skin surface for the application of a drug loaded formulation. Skin samples were then frozen and later cryosectioned in 50 μm slices. The drug in the slices was extracted and measured by HPLC or radioactive doping methods. A drug depth profile was then established for each drug.
1. Formulations containing a drug and a gallate. The drugs were dissolved in ethanol at various concentrations along with either EGCG or TA (500 mg/mL). Each solution was pipetted into 6×5 mm diameter aluminum cups (approximately 3 mm in height) by filling and allowing the ethanol to evaporate at 50° C. until all the solution was used up (80 mg per cup).
2. Formulations containing a drug, propylene glycol (“PG”) and a gallate. 300 mg of propylene glycol was mixed with 200 mg of EGCG or TA until dissolved. Various amounts of drug were added to this mixture and dissolved. 80 mg of the resulting viscous solution was weighed into 6×5 mm aluminum cups.
3. Control Formulations. Control formulations were prepared using Glaxal base and Plogel. Glaxal base is a cream used by compounding pharmacists to manufacture topical formulations of drugs. Plogel is an alternative used for dermal formulations. […] Drug was added to a known weight of Glaxal or Plogel and levigated to produce a standard drug dispersion. These formulations were prepared the evening before the experiment. For some drugs, radioactive drug (where available) was also added as a doping additive to facilitate quantitation in tissues.
Eutectics: In some cases, gallate containing compounds and drugs were formulated in eutectic mixtures. These included a 60:40 (% w/w) mixture of menthol with ibuprofen. These agents acted as a carrier for retinoic acid, which was then dissolved in this liquid. The 3-drug eutectic/solution was then blended into the CMC/poloxamer emulsion containing EGCG (2.5%). […] The emulsion was stabilized with poloxamer.
Example 29. Pig skin studies. Aluminum cups containing drug formulations were inverted on top of the pig skin in the Franz diffusion cell so that the formulation contents were in contact with the skin. […]
Analysis. […] The amount of drug in each group of skin sections was then determined using HPLC methods, or by radioactivity counting on a liquid scintillation counter. The amount of drug in each group of skin sections was expressed as μg/g or mg/g of tissue.

[2] = 24 h
Caco2 cells = experiment: Transport of curcumin through Caco2 cells (transwell); assay type: in vitro ADME, human; conditions: 3 hours
Excerpt: Caco2 cells are continuous cells of human epithelial colorectal adenocarcinoma cells. They contain drug efflux proteins and may be used in the same way that MDCK-MDR cells are, i.e. to measure drug accumulation in cells that have the ability to efflux drugs.
Caco2 cells (ATCC, VA, USA) are proliferating gut epithelial cells used throughout the pharmaceutical sciences as a model of oral drug availability. These cells may be grown in cell culture on membranes where they align with an apical external surface (equivalent to the gut lumen) and a basolateral lower surface that is equivalent to the cell side adjacent to the blood capillaries. When an EGCG curcumin solution was placed in the upper portion of a transwell containing these cells on a membrane for three hours, large amounts of curcumin either passed through or accumulated within the caco2 cells.
Caco2 cells were seeded onto 0.3 um transwell membranes and left to grow to confluence for 3 days. A conductivity electrode measured the Transcellular electrical resistance value over the next few days and when it had reached […] (tight junctions established) the experiment began. A solution of curcumin (250 microgram per ml) in EGCG (25 mg per ml) in Hanks buffer pH 7.4. was added to the top well for 3 hours. […] All solutions were then analyzed for curcumin content using uv-vis absorbance spectroscopy at 430 nm.

[3] = Drug release from injectable PG:gallate pastes (60:40) into PBS; assay type: physicochemical; conditions: 60:40 PG:EGCG or PG:tannic acid, 2% w/w drug, PBS pH 7.4, 37° C.
Experimental: Methods: 60:40% w/w PG:EGCG or PG:tannic acid was used in these studies. 588 mg of propylene glycol was weighed into a 20 mL glass vials and 392 of EGCG or tannic acid was added followed by vortexing to distribute and dissolve the gallates. The vials were warmed to 60° C. and vortexed until all the contents were in solution. At this time 20 mg of drug was added (2% w/w) and vortexed until in solution. The following drugs were used: paclitaxel, docetaxel, retinoic acid, amphotericin B, and curcumin. 100 mg of each paste was weighed into the base of a 15 mL glass test tube and 10 mL of phosphate buffered saline was added at pH 7.4 and the tubes were incubated at 37° C. for certain times. All 10 mL of the PBS release media was removed and 1 mL analyzed by HPLC for drug content. 10 mL of fresh PBS was then added to all tubes

[4] = Drug in EGCG or tannic acid films (optical microscopy, DSC); assay type: physicochemical
Experimental: Thin films of drugs were cast in either EGCG or tannic acid from ethanol solutions. Drugs in either EGCG or tannic acid were dissolved in ethanol at a final total concentration of 20% w/v and spot pipetted in repeated 10 microliter volumes and allowed to dry between spotting. This allowed a thin film to accumulate and dry. Some solutions contained either glycerol or polyethylene glycol 300 at 10% or 20% w/w to EGCG or tannic acid. The films were allowed to dry and examined by optical microscopy for drug precipitation. Films were allow analyzed by differential scanning calorimetry (DSC) for identify drug crystals.

## COc1cc(/C=C/C(=O)CC(=O)/C=C/c2ccc(O)c(OC)c2)ccc1O [curcumin]
[1]
  Visual appearance: clear
[1]; 1 ml of water
  Drug Concentration: 250 microgram/ml
[1]; under a microscope
  Particulates present: no
Pig skin
  drug uptake by pig skin: essentially no drug uptake
[2]
  stability of EGCG solutions of the drug: stable for 24 hours
  stability of tannic acid solutions of the drug: stable for 24 hours
Caco2 cells; curcumin 250 microgram per ml in EGCG 25 mg per ml, versus diblock copolymer
  curcumin uptake and transport through the cells: much higher levels
Caco2 cells; diblock copolymer micellar solution, 250 micrograms/ml
  curcumin passing through and entering the cells: small amount
[3]
  drug release from PG:gallate paste: relatively controlled release of the drug over 24 hours
[4]
  drug loading at which drug precipitated out of film: approximately 5 % w/w
physchem; aqueous with cosolvent or surfactant or cyclodextrin, thermodynamic from solid, drug concentration solubilised at maximum EGCG concentration
  solubility: ~4700 µg/mL (≈ 12.8 mM)
physchem; aqueous with cosolvent or surfactant or cyclodextrin, thermodynamic from solid, drug concentration solubilised at maximum tannic acid concentration
  solubility: ~12000 µg/mL (≈ 32.6 mM)
physchem; water, free solubility in water
  solubility: < 1 µg/mL

— patent publication US11707557B2, “Compositions and devices incorporating water-insoluble therapeutic agents and methods of the use thereof” (COOK MEDICAL TECHNOLOGIES LLC, priority 2014, dated 2023)
